# Measured values reported in US11739098B2 (BRISTOL-MYERS SQUIBB COMPANY, priority 2017, dated 2023).
# What was measured:
# Format in all cases: cell-based
# human TLR8 = target: T1, human TLR8 (Homo sapiens, UniProt Q9NR97); experiment: TLR8 inhibition reporter assay (HEK-Blue cells, SEAP reporter, R848 stimulation); settings: HEK-Blue cells overexpressing human TLR8, SEAP reporter, R848 15.9 μM
# T1 construct: host or cells: HEK-Blue cells (HEK293-derived reporter line)
# T1 sequence (Q9NR97 27-1041): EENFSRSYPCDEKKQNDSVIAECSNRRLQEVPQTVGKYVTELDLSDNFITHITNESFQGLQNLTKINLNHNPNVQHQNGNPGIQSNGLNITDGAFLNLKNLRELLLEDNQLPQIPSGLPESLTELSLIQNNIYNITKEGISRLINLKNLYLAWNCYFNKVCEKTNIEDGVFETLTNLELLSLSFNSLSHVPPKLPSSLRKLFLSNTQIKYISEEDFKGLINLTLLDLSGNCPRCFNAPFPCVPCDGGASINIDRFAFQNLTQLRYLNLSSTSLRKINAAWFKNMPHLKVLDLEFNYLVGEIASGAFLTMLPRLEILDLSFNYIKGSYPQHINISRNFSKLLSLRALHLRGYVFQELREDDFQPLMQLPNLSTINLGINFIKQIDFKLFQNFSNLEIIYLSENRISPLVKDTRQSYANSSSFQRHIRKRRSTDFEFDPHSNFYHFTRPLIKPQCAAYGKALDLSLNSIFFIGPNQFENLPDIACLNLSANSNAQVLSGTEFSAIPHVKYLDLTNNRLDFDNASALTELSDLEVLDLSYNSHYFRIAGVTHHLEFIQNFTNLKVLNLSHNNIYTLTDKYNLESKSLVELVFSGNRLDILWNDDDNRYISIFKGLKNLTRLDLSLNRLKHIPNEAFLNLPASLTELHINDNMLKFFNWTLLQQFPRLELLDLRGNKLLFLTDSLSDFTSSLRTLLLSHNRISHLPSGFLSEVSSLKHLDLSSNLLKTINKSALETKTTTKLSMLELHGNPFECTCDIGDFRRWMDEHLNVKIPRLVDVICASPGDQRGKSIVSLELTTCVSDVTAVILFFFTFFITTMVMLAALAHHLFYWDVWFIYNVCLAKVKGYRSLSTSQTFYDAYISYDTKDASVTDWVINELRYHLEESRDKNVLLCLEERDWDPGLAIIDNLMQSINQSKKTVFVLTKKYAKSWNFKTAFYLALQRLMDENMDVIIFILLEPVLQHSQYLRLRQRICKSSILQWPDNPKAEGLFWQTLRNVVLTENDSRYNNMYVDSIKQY
# Procedure, shortened: (§1)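 After 22 h at 37 °C, SEAP secretion was measured from human TLR7-, TLR8- or TLR9-expressing HEK-Blue reporter cells given compound (0.05 nM–50 μM) 30 min before agonist: 7.5 μM gardiquimod, 15.9 μM R848 or 5 nM ODN2006 respectively. Percent inhibition referenced to agonist-plus-DMSO and known-inhibitor wells.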
# human TLR7 = target: T2, human TLR7 (Homo sapiens, UniProt Q9NYK1); experiment: TLR7 inhibition reporter assay (HEK-Blue cells, SEAP reporter, gardiquimod stimulation); settings: HEK-Blue cells overexpressing human TLR7, SEAP reporter, gardiquimod 7.5 μM
# T2 construct: host or cells: HEK-Blue cells (HEK293-derived reporter line)
# T2 sequence (Q9NYK1 27-1049): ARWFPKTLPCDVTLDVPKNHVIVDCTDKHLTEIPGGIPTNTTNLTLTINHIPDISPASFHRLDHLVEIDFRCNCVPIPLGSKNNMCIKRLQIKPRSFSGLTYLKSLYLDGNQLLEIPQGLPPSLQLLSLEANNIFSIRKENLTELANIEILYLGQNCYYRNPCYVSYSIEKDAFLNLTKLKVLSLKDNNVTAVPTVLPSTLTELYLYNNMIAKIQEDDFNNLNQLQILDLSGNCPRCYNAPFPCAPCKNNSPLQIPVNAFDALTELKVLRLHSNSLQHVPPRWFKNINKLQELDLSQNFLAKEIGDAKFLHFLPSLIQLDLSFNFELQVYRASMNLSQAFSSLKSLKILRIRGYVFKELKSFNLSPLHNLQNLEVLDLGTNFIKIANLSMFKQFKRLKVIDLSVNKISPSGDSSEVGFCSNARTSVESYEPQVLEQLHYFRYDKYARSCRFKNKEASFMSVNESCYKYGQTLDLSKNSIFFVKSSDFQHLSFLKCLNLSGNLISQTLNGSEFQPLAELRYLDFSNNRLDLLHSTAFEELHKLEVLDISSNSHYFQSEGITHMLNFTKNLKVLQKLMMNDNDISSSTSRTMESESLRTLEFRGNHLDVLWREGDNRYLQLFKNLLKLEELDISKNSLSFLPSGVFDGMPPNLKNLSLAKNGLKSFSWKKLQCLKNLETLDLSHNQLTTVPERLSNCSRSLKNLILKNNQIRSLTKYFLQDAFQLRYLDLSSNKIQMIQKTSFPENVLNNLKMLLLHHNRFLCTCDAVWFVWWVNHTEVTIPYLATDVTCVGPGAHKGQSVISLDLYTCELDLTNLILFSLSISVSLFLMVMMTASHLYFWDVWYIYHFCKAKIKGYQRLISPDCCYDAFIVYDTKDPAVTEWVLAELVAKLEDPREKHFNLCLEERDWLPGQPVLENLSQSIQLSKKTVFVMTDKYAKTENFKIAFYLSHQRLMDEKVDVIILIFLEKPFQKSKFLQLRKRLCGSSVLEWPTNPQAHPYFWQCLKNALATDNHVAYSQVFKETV
# Procedure, shortened: as §1
# human TLR9 = target: T3, human TLR9 (Homo sapiens, UniProt Q9NR96); experiment: TLR9 inhibition reporter assay (HEK-Blue cells, SEAP reporter, ODN2006 stimulation); settings: HEK-Blue cells overexpressing human TLR9, SEAP reporter, ODN2006 5 nM
# T3 construct: host or cells: HEK-Blue cells (HEK293-derived reporter line)
# T3 sequence (Q9NR96 26-1032): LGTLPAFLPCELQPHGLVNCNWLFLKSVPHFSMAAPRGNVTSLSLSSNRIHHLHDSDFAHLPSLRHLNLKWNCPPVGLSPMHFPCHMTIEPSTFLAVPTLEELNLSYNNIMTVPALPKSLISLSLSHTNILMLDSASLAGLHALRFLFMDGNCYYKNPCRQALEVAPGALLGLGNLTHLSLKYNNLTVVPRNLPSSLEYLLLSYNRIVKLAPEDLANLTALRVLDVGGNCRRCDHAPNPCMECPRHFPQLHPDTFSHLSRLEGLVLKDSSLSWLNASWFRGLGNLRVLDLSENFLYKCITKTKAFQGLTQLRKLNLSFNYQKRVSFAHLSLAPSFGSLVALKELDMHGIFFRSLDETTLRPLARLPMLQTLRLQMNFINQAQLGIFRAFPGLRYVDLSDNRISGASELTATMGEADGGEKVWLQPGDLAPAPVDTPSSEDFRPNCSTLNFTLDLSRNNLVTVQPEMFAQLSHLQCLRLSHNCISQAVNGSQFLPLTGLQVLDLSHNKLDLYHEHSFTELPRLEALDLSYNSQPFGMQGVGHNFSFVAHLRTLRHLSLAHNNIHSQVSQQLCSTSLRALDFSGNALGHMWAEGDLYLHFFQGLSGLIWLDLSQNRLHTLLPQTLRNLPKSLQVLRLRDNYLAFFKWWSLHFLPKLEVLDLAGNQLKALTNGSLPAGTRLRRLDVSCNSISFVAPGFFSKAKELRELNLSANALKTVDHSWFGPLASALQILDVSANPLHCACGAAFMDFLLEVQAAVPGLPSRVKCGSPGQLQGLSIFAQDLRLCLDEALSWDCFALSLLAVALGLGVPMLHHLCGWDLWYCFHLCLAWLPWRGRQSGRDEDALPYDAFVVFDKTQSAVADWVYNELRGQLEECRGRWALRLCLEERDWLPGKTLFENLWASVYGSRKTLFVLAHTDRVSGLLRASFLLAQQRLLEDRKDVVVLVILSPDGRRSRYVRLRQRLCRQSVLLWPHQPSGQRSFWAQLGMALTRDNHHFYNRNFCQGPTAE
# Procedure, shortened: as §1
IC50 (human TLR8) [nM],IC50 (human TLR7) [nM],IC50 (human TLR9) [nM],Compound
< 100,< 100,1000 to 50000,"Cc1cc(-c2[nH]c3ccc(C4CCN(Cc5ncn(C)n5)CC4)cc3c2C(C)C)cn2nnnc12 [Example 885, 6-(3-isopropyl-5-(1-((1-methyl-1H-1,2,4-triazol-3-yl)methyl)piperidin-4-yl)-1H-indol-2-yl)-8-methyltetrazolo[1,5-a]pyridine]"
< 100,< 100,1000 to 50000,"CNC(=O)CN1CCC(c2ccc3[nH]c(-c4cnc5ncnn5c4)c(C(C)C)c3c2)CC1 [Example 423, 2-(4-(2-([1,2,4]triazolo[1,5-a]pyrimidin-6-yl)-3-isopropyl-1H-indol-5-yl)piperidin-1-yl)-N-methylacetamide]"
> 3130,< 100,> 50000,"Cc1nc2cc(-c3[nH]c4ccc(C5CCN(C(=O)C[C@H](C)O)CC5)cc4c3C(C)C)ccn2n1 [Example 602, (S)-3-hydroxy-1-(4-(3-isopropyl-2-(2-methyl-[1,2,4]triazolo[1,5-a]pyridin-7-yl)-1H-indol-5-yl)piperidin-1-yl)butan-1-one]"
< 100,< 100,1000 to 50000,"Cc1c(-c2[nH]c3ccc(C4CCN(C5CCOCC5)CC4)cc3c2C(C)C)nn2ncnc2c1C [Example 684, 6-(3-isopropyl-5-(1-(tetrahydro-2H-pyran-4-yl)piperidin-4-yl)-1H-indol-2-yl)-7,8-dimethyl-[1,2,4]triazolo[1,5-b]pyridazine]"
< 100,< 100,1000 to 50000,"CNC(=O)CN1CCC(c2ccc3[nH]c(-c4cc(C)n5nncc5c4)c(C(C)C)c3c2)CC1 [Example 320, 2-(4-(3-isopropyl-2-(7-methyl-[1,2,3]triazolo[1,5-a]pyridin-5-yl)-1H-indol-5-yl)piperidin-1-yl)-N-methylacetamide]"
< 100,< 100,< 100,"CCc1c(-c2cnc3cn[nH]c3c2)[nH]c2ccc(C3CCN(C4CCN(C(C)C)CC4)CC3)cc12 [Example 836, 6-(3-ethyl-5-(1′-isopropyl-[1,4′-bipiperidin]-4-yl)-1H-indol-2-yl)-1H-pyrazolo[4,3-b]pyridine]"

# More lines, now with the values behind:
Compound,IC50 (human TLR8) [nM],IC50 (human TLR7) [nM],IC50 (human TLR9) [nM]
"CC(C)c1c(-c2cn(C)c3ncccc23)[nH]c2ccc(C3CCN(C4COC4)CC3)cc12 [Example 733, 3-(3-isopropyl-5-(1-(oxetan-3-yl)piperidin-4-yl)-1H-indol-2-yl)-1-methyl-1H-pyrrolo[2,3-b]pyridine]",< 100,< 100,1000 to 50000
"Cc1cc(-c2[nH]c3ccc(C4CCNCC4)cc3c2C(C)C)c2[nH]c(C)cc2n1 [Example 40, 7-(3-isopropyl-5-(piperidin-4-yl)-1H-indol-2-yl)-2,5-dimethyl-1H-pyrrolo[3,2-b]pyridine]",1000 to 50000,1000 to 50000,100 to 1000
"CC(C)c1c(-c2cc(F)c3nccn3c2)[nH]c2ccc(C3CCN(C(=O)C[C@@H](C)O)CC3)cc12 [Example 605, (R)-1-(4-(2-(8-fluoroimidazo[1,2-a]pyridin-6-yl)-3-isopropyl-1H-indol-5-yl)piperidin-1-yl)-3-hydroxybutan-1-one]",1000 to 50000,< 100,> 50000
"Cc1cc2nnnn2cc1-c1[nH]c2ccc(C3CCN(C4CCS(=O)(=O)CC4)CC3)cc2c1C(C)C [Example 791, 4-(4-(3-isopropyl-2-(7-methyltetrazolo[1,5-a]pyridin-6-yl)-1H-indol-5-yl)piperidin-1-yl)tetrahydro-2H-thiopyran 1,1-dioxide]",< 100,< 100,1000 to 50000
"CC(C)c1c(-c2ccc3cnnn3c2)[nH]c2ccc(C3CCN(C(=O)CN(C)C)CC3)cc12 [Example 464, 1-(4-(2-([1,2,3]triazolo[1,5-a]pyridin-6-yl)-3-isopropyl-1H-indol-5-yl)piperidin-1-yl)-2-(dimethylamino)ethan-1-one]",100 to 1000,100 to 1000,100 to 1000
"COc1cc(-c2[nH]c3ccc(C4CCNCC4)cc3c2C(C)C)cn2ccnc12 [Example 125, 6-(3-isopropyl-5-(piperidin-4-yl)-1H-indol-2-yl)-8-methoxyimidazo[1,2-a]pyridine]",< 100,< 100,100 to 1000
"CC(C)c1c(-c2ccc3ncsc3c2)[nH]c2ccc(C3CCNCC3)cc12 [Example 9, 6-(3-isopropyl-5-(piperidin-4-yl)-1H-indol-2-yl) benzo[d]thiazole]",< 100,< 100,1000 to 50000
"Cc1cc2nc(-c3[nH]c4ccc(C5CCNCC5)cc4c3C(C)C)c(F)cn2n1 [Example 148, 6-fluoro-5-(3-isopropyl-5-(piperidin-4-yl)-1H-indol-2-yl)-2-methylpyrazolo[1,5-a]pyrimidine]",100 to 1000,< 100,1000 to 50000
"CCc1c(-c2cnc3cnccn23)[nH]c2ccc(C3CCNCC3)cc12 [Example 28, 3-(3-ethyl-5-(piperidin-4-yl)-1H-indol-2-yl)imidazo[1,2-a]pyrazine]",1000 to 50000,1000 to 50000,100 to 1000
